{
  "source": "patent US10370369B2",
  "about": "“Acid addition salt of 3-aminoquinuclidine which does not exhibit deliquescence” (YUKI GOSEI KOGYO CO. LTD., priority 2015, dated 2019)",
  "data": [
    {"experiment": "Deliquescence Test (Experimental Example 2, salts of (R)-3-aminoquinuclidine)", "type": "physicochemical", "conditions": "about 0.5 g allowed to stand for 1 hour, 24 to 25° C., humidity of 74 to 76%, visual evaluation", "experimental": "The acid addition salts (about 0.5 g) of (R)-3-aminoquinuclidine obtained in Examples 7 to 13, Referential Example 2, and Comparative Examples 10 to 17 were allowed to stand for 1 hour, under the conditions of 24 to 25° C. and a humidity of 74 to 76%, and a deliquescence was observed by a visual evaluation.", "values": [
      {"compound": "Br.Br.N[C@H]1CN2CCC1CC2", "note": "[Comparative Example 10, (R)-3-aminoquinuclidine-dihydrobromide]", "Deliquescence": "Gradually"},
      {"compound": "N[C@H]1CN2CCC1CC2.O=[N+]([O-])O.O=[N+]([O-])O", "note": "[Comparative Example 11, (R)-3-aminoquinuclidine.dinitrate]", "Deliquescence": "Gradually"},
      {"compound": "CC(=O)O.CC(=O)O.N[C@H]1CN2CCC1CC2", "note": "[Comparative Example 12, (R)-3-aminoquinuclidine.diacetate]", "Deliquescence": "Immediately"},
      {"compound": "CCC(=O)O.N[C@H]1CN2CCC1CC2", "note": "[Comparative Example 13, (R)-3-aminoquinuclidine.monopropionate]", "Deliquescence": "Immediately"},
      {"compound": "N[C@H]1CN2CCC1CC2.O=C(O)c1ccccc1.O=C(O)c1ccccc1", "note": "[Comparative Example 14, (R)-3-aminoquinuclidine.dibenzoate]", "Deliquescence": "Immediately"},
      {"compound": "N[C@H]1CN2CCC1CC2.O=C(O)/C=C\\C(=O)O", "note": "[Comparative Example 15, (R)-3-aminoquinuclidine.monomaleate]", "Deliquescence": "Gradually"},
      {"compound": "N[C@H]1CN2CCC1CC2.N[C@H]1CN2CCC1CC2.N[C@H]1CN2CCC1CC2.O=C(O)CC(O)(CC(=O)O)C(=O)O.O=C(O)CC(O)(CC(=O)O)C(=O)O", "note": "[Comparative Example 16, (R)-3-aminoquinuclidine.2/3citrate]", "Deliquescence": "Immediately"},
      {"compound": "CS(=O)(=O)O.N[C@H]1CN2CCC1CC2", "note": "[Comparative Example 17, (R)-3-aminoquinuclidine.monomesylate]", "Deliquescence": "Gradually"},
      {"compound": "N[C@H]1CN2CCC1CC2.N[C@H]1CN2CCC1CC2.O=P(O)(O)O.O=P(O)(O)O.O=P(O)(O)O", "note": "[Example 7, (R)-3-aminoquinuclidine.sesquiphosphate]", "Deliquescence": "Not deliquesce"},
      {"compound": "N[C@H]1CN2CCC1CC2.O=S(=O)(O)O", "note": "[Example 8, (R)-3-aminoquinuclidine.monosulfate]", "Deliquescence": "Not deliquesce"},
      {"compound": "N[C@H]1CN2CCC1CC2.O=C(O)/C=C/C(=O)O", "note": "[Example 9, (R)-3-aminoquinuclidine.monofumarate]", "Deliquescence": "Not deliquesce"},
      {"compound": "N[C@H]1CN2CCC1CC2.O=C(O)c1ccc(C(=O)O)cc1", "note": "[Example 10, (R)-3-aminoquinuclidine.monoterephthalate]", "Deliquescence": "Not deliquesce"},
      {"compound": "N[C@H]1CN2CCC1CC2.O=C(O)C(=O)O", "note": "[Example 11, (R)-3-aminoquinuclidine.monooxalate]", "Deliquescence": "Not deliquesce"},
      {"compound": "Cc1ccc(S(=O)(=O)O)cc1.N[C@H]1CN2CCC1CC2", "note": "[Example 12, (R)-3-aminoquinuclidine.mono-p-toluenesulfonate]", "Deliquescence": "Not deliquesce"},
      {"compound": "CC1(C)C2CCC1(CS(=O)(=O)O)C(=O)C2.N[C@H]1CN2CCC1CC2", "note": "[Example 13, (R)-3-aminoquinuclidine.mono-(−)-10-camphorsulfonate]", "Deliquescence": "Not deliquesce"},
      {"compound": "Cl.Cl.N[C@H]1CN2CCC1CC2", "note": "[Referential Example 2, (R)-3-aminoquinuclidine.dihydrochloride]", "Deliquescence": "Immediately"}
    ]},
    {"experiment": "Deliquescence Test (Experimental Example 1, salts of racemic 3-aminoquinuclidine)", "type": "physicochemical", "conditions": "about 0.5 g allowed to stand for 1 hour, 25 to 27° C., humidity of 76 to 82%, visual evaluation", "experimental": "racemic 3-aminoquinuclidine.dihydrochloride of reagent, and the acid addition salts (about 0.5 g) of racemic 3-aminoquinuclidine obtained in Examples 1 to 6 and Comparative Examples 1 to 9 were allowed to stand for 1 hour, under the condition of 25 to 27° C., and a humidity of 76 to 82%, and a deliquescence was observed by a visual evaluation.", "values": [
      {"compound": "Br.Br.NC1CN2CCC1CC2", "note": "(racemic) [Comparative Example 1, racemic 3-aminoquinuclidine-dihydrobromide]", "Deliquescence": "Gradually"},
      {"compound": "NC1CN2CCC1CC2.O=S(=O)(O)O", "note": "(racemic) [Comparative Example 2, racemic 3-aminoquinuclidine.monosulfate]", "Deliquescence": "Gradually"},
      {"compound": "NC1CN2CCC1CC2.O=[N+]([O-])O.O=[N+]([O-])O", "note": "(racemic) [Comparative Example 3, racemic 3-aminoquinuclidine.dinitrate]", "Deliquescence": "Gradually"},
      {"compound": "CC(=O)O.CC(=O)O.NC1CN2CCC1CC2", "note": "(racemic) [Comparative Example 4, racemic 3-aminoquinuclidine.diacetate]", "Deliquescence": "Immediately"},
      {"compound": "CCC(=O)O.NC1CN2CCC1CC2", "note": "(racemic) [Comparative Example 5, racemic 3-aminoquinuclidine.monopropionate]", "Deliquescence": "Immediately"},
      {"compound": "NC1CN2CCC1CC2.O=C(O)c1ccccc1.O=C(O)c1ccccc1", "note": "(racemic) [Comparative Example 6, racemic 3-aminoquinuclidine.dibenzoate]", "Deliquescence": "Gradually"},
      {"compound": "NC1CN2CCC1CC2.O=C(O)/C=C\\C(=O)O", "note": "(racemic) [Comparative Example 7, racemic 3-aminoquinuclidine.monomaleate]", "Deliquescence": "Gradually"},
      {"compound": "NC1CN2CCC1CC2.NC1CN2CCC1CC2.NC1CN2CCC1CC2.O=C(O)CC(O)(CC(=O)O)C(=O)O.O=C(O)CC(O)(CC(=O)O)C(=O)O", "note": "(racemic) [Comparative Example 8, racemic 3-aminoquinuclidine.2/3 citrate]", "Deliquescence": "Immediately"},
      {"compound": "CS(=O)(=O)O.NC1CN2CCC1CC2", "note": "(racemic) [Comparative Example 9, racemic 3-aminoquinuclidine.monomesylate]", "Deliquescence": "Gradually"},
      {"compound": "NC1CN2CCC1CC2", "note": "(racemic) [Example 1, racemic 3-aminoquinuclidine.sesquiphosphate]", "Deliquescence": "Not deliquesce"},
      {"compound": "NC1CN2CCC1CC2.O=C(O)/C=C/C(=O)O", "note": "(racemic) [Example 2, racemic 3-aminoquinuclidine.monofumarate]", "Deliquescence": "Not deliquesce"},
      {"compound": "NC1CN2CCC1CC2.O=C(O)c1ccc(C(=O)O)cc1", "note": "(racemic) [Example 3, racemic 3-aminoquinuclidine.monoterephthalate]", "Deliquescence": "Not deliquesce"},
      {"compound": "NC1CN2CCC1CC2.O=C(O)C(=O)O", "note": "(racemic) [Example 4, racemic 3-aminoquinuclidine.monooxalate]", "Deliquescence": "Not deliquesce"},
      {"compound": "Cc1ccc(S(=O)(=O)O)cc1.NC1CN2CCC1CC2", "note": "(racemic) [Example 5, racemic 3-aminoquinuclidine.mono-p-toluenesulfonate]", "Deliquescence": "Not deliquesce"},
      {"compound": "CC1(C)C2CCC1(CS(=O)(=O)O)C(=O)C2.NC1CN2CCC1CC2", "note": "(racemic) [Example 6, racemic 3-aminoquinuclidine.mono-(±)-10-camphorsulfonate]", "Deliquescence": "Not deliquesce"},
      {"compound": "Cl.Cl.NC1CN2CCC1CC2", "note": "(racemic) [Reagent, racemic 3-aminoquinuclidine.dihydrochloride]", "Deliquescence": "Immediately"}
    ]},
    {"experiment": "Deliquescence Test (Experimental Example 3, salts of (S)-3-aminoquinuclidine)", "type": "physicochemical", "conditions": "about 0.5 g allowed to stand for 1 hour, 24 to 26° C., humidity of 75 to 78%, visual evaluation", "experimental": "The acid addition salts (about 0.5 g) of (S)-3-aminoquinuclidine obtained in Examples 14 to 19, and Comparative Examples 18 to 19 were allowed to stand for 1 hour, under the conditions of 24 to 26° C., and a humidity of 75 to 78%, and a deliquescence was observed by a visual evaluation.", "values": [
      {"compound": "N[C@@H]1CN2CCC1CC2.O=[N+]([O-])O.O=[N+]([O-])O", "note": "[Comparative Example 18, (S)-3-aminoquinuclidine.dinitrate]", "Deliquescence": "Gradually"},
      {"compound": "CC(=O)O.CC(=O)O.N[C@@H]1CN2CCC1CC2", "note": "[Comparative Example 19, (S)-3-aminoquinuclidine.diacetate]", "Deliquescence": "Immediately"},
      {"compound": "N[C@@H]1CN2CCC1CC2.N[C@@H]1CN2CCC1CC2.O=P(O)(O)O.O=P(O)(O)O.O=P(O)(O)O", "note": "[Example 14, (S)-3-aminoquinuclidine.sesquiphosphate]", "Deliquescence": "Not deliquesce"},
      {"compound": "N[C@@H]1CN2CCC1CC2.O=S(=O)(O)O", "note": "[Example 15, (S)-3-aminoquinuclidine.monosulfate]", "Deliquescence": "Not deliquesce"},
      {"compound": "N[C@@H]1CN2CCC1CC2.O=C(O)/C=C/C(=O)O", "note": "[Example 16, (S)-3-aminoquinuclidine.monofumarate]", "Deliquescence": "Not deliquesce"},
      {"compound": "N[C@@H]1CN2CCC1CC2.O=C(O)c1ccc(C(=O)O)cc1", "note": "[Example 17, (S)-3-aminoquinuclidine.monoterephthalate]", "Deliquescence": "Not deliquesce"},
      {"compound": "N[C@@H]1CN2CCC1CC2.O=C(O)C(=O)O", "note": "[Example 18, (S)-3-aminoquinuclidine.monooxalate]", "Deliquescence": "Not deliquesce"},
      {"compound": "Cc1ccc(S(=O)(=O)O)cc1.N[C@@H]1CN2CCC1CC2", "note": "[Example 19, (S)-3-aminoquinuclidine.mono-p-toluenesulfonate]", "Deliquescence": "Not deliquesce"},
      {"compound": "Cl.Cl.N[C@@H]1CN2CCC1CC2", "note": "[Referential Example 4, (S)-3-aminoquinuclidine.dihydrochloride]", "Deliquescence": "Immediately"}
    ]}
  ]
}
